From patent US8236801B2, “2-aza-bicyclo[2.2.1]heptane derivatives” (Actelion Pharmaceuticals Ltd., priority 2008, dated 2012)
Where two headings read alike, the source gives them in different places.

Assays:
human orexin-1 receptor = molecular target: T1, human orexin-1 receptor (Homo sapiens, UniProt O43613); assay: FLIPR calcium assay, antagonism of orexin-A in CHO cells expressing the human orexin-1 receptor; assay type: cell-based; conditions: read-out: OX1 IC50
T1 construct: expressed in transfected cells; host or cells: Chinese hamster ovary (CHO) cells, G418 selection
T1 sequence (O43613 1-425): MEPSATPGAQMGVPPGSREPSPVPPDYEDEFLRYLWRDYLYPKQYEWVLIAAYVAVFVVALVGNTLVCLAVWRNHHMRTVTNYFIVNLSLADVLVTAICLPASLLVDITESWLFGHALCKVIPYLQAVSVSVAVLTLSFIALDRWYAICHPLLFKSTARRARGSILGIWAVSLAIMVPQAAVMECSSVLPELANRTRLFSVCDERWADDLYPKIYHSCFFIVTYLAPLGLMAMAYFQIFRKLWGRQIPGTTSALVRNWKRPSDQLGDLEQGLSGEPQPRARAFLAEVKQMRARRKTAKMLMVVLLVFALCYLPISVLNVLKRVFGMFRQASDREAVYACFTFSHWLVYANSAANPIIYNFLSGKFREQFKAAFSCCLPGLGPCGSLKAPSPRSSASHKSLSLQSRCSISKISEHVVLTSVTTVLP
Method: (§1) Chinese hamster ovary (CHO) cells expressing the human orexin-1 receptor and the human orexin-2 receptor, respectively, are grown in culture medium (Ham F-12 with L-Glutamine) containing 300 μg/ml G418, 100 U/ml penicillin, 100 μg/ml streptomycin and 10% heat inactivated fetal calf serum (FCS). The cells are seeded at 20′000 cells/well into 384-well black clear bottom sterile plates (Greiner). The seeded plates are incubated overnight at 37° C. in 5% CO2. Human orexin-A as an agonist is prepared as 1 mM stock solution in MeOH:water (1:1), diluted in HBSS containing 0.1% bovine serum albumin (BSA), NaHCO3: 0.375 g/l and 20 mM HEPES for use in the assay at a final concentration of 3 nM. Antagonists are prepared as 10 mM stock solution in DMSO, then diluted in 384-well plates, first in DMSO, then in HBSS containing 0.1% bovine serum albumin (BSA), NaHCO3: 0.375 g/l and 20 mM HEPES. On the day of the assay, 50 μl of staining buffer (HBSS containing 1% FCS, 20 mM HEPES, NaHCO3: 0.375 g/l, 5 mM probenecid (Sigma) and 3 μM of the fluorescent calcium indicator fluo-4 AM (1 mM stock solution in DMSO, containing 10% pluronic) is added to each well. The 384-well cell-plates are incubated for 50 min at 37° C. in 5% CO2 followed by equilibration at rt for 30-120 min before measurement. Within the Fluorescent Imaging Plate Reader (FLIPR2 or FLIPR Tetra, Molecular Devices), antagonists are added to the plate in a volume of 10 μl/well, incubated for 10 min and finally 10 μl/well of agonist is added. Fluorescence is measured for each well at 1 second intervals, and the height of each fluorescence peak is compared to the height of the fluorescence peak induced by 3 nM orexin-A with vehicle in place of antagonist. For each antagonist, the IC50 value (the concentration of compound needed to inhibit 50% of the agonistic response) is determined. Optimized conditions may be achieved by adjustment of pipetting speed and cell splitting regime. The calculated IC50 values of the compounds may fluctuate depending on the daily cellular assay performance. Fluctuations of this kind are known to those skilled in the art.

human orexin-2 receptor = molecular target: T2, human orexin-2 receptor (Homo sapiens, UniProt O43614); assay: FLIPR calcium assay, antagonism of orexin-A in CHO cells expressing the human orexin-2 receptor; assay type: cell-based; conditions: read-out: OX2 IC50
T2 construct: expressed in transfected cells; host or cells: Chinese hamster ovary (CHO) cells, G418 selection
T2 sequence (O43614 1-444): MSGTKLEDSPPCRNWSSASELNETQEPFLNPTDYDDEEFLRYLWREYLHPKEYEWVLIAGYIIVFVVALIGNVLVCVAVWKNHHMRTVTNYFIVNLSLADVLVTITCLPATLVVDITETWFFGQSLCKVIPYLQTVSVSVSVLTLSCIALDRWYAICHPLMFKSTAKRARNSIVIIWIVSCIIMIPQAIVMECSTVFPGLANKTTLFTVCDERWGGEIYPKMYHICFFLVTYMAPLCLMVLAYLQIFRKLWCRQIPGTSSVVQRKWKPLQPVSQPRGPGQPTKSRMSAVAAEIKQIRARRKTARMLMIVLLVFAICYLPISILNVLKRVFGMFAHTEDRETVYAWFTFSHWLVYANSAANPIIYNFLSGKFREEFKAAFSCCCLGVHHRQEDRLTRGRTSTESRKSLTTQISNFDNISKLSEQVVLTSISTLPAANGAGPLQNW
Method: as §1

[1] = measured with FLIPR 2, 3 nM orexin-A, CHO cells
[2] = measured with FLIPR Tetra (marked *), 3 nM orexin-A, CHO cells
[3] = measured with FLIPR Tetra (marked *), geometric mean from n = 2 values

Compound | IC50 (human orexin-1 receptor; [2]) [nM] | IC50 (human orexin-2 receptor; [2]) [nM] | other results
Cc1ncc(C(=O)N2[C@@H]3CC[C@@H](C3)[C@H]2CNC(=O)c2cccc3occc23)c(-c2ccccc2)n1 [Example 11, Benzofuran-4-carboxylic acid [(1R,3S,4S)-2-(2-methyl-4-phenyl-pyrimidine-5-carbonyl)-2-aza-bicyclo[2.2.1]hept-3-ylmethyl]-amide] |  |  | IC50 (human orexin-1 receptor; [1]): 75 nM; IC50 (human orexin-2 receptor; [1]): 2140 nM
O=C(NC[C@@H]1[C@H]2CC[C@H](C2)N1C(=O)c1sccc1-c1ccc2c(c1)OCO2)c1cccc2ncsc12 [Example 94, Benzothiazole-7-carboxylic acid [(1R,3S,4S)-2-(3-benzo[1,3]dioxol-5-yl-thiophene-2-carbonyl)-2-aza-bicyclo[2.2.1]hept-3-ylmethyl]-amide] | 1270 | 81 | 
Cc1nc2sccn2c1C(=O)NC[C@@H]1[C@H]2CC[C@H](C2)N1C(=O)c1ncsc1-c1ccc(F)cc1 [Example 35, 6-Methyl-imidazo[2,1-b]thiazole-5-carboxylic acid {(1R,3S,4S)-2-[5-(4-fluoro-phenyl)-thiazole-4-carbonyl]-2-aza-bicyclo[2.2.1]hept-3-ylmethyl}-amide] | 278 | 808 | 
Cc1nc(C(=O)N2[C@@H]3CC[C@@H](C3)[C@H]2CNc2ncc(Br)cn2)c(-c2ccccc2)s1 [Example 46, {(1R,3S,4S)-3-[(5-Bromo-pyrimidin-2-ylamino)-methyl]-2-aza-bicyclo[2.2.1]hept-2-yl}-(2-methyl-5-phenyl-thiazol-4-yl)-methanone] | 488 | 364 | 
CN(C)c1nc(C(=O)N2[C@@H]3CC[C@@H](C3)[C@H]2CNC(=O)c2nsc3ccccc23)c(-c2cccc(F)c2)s1 [Example 105, Benzo[d]isothiazole-3-carboxylic acid {(1R,3S,4S)-2-[2-dimethylamino-5-(3-fluoro-phenyl)-thiazole-4-carbonyl]-2-aza-bicyclo[2.2.1]hept-3-ylmethyl}-amide] | 65 | 421 | 
CCn1nc(C)cc1C(=O)NC[C@@H]1[C@H]2CC[C@H](C2)N1C(=O)c1ccccc1-c1ccccc1 [Example 40, 2-Ethyl-5-methyl-2H-pyrazole-3-carboxylic acid [(1R,3S,4S)-2-(biphenyl-2-carbonyl)-2-aza-bicyclo[2.2.1]hept-3-ylmethyl]-amide] |  |  | IC50 (human orexin-1 receptor; [1]): > 10000 nM; IC50 (human orexin-2 receptor; [1]): 441 nM
Cc1nc(C(=O)N2[C@@H]3CC[C@@H](C3)[C@H]2CNC(=O)c2cccc3ncsc23)c(-c2cccc(OC(F)(F)F)c2)o1 [Example 104, Benzothiazole-7-carboxylic acid {(1R,3S,4S)-2-[2-methyl-5-(3-trifluoromethoxy-phenyl)-oxazole-4-carbonyl]-2-aza-bicyclo[2.2.1]hept-3-ylmethyl}-amide] | 305 | 37 | 
O=C(NC[C@@H]1[C@H]2CC[C@H](C2)N1C(=O)c1nccnc1-c1ccc2cc[nH]c2c1)c1cccc2ncsc12 [Example 109, Benzothiazole-7-carboxylic acid {(1R,3S,4S)-2-[3-(1H-indol-6-yl)-pyrazine-2-carbonyl]-2-aza-bicyclo[2.2.1]hept-3-ylmethyl}-amide] | 707 | 19 | 
Cc1nc2c(C(=O)NC[C@@H]3[C@H]4CC[C@H](C4)N3C(=O)c3nc(N(C)C)sc3-c3cccc(F)c3)cccc2o1 [Example 79, 2-Methyl-benzooxazole-4-carboxylic acid {(1R,3S,4S)-2-[2-dimethylamino-5-(3-fluoro-phenyl)-thiazole-4-carbonyl]-2-aza-bicyclo[2.2.1]hept-3-ylmethyl}-amide] |  |  | IC50 (human orexin-1 receptor; [3]): 64 nM; IC50 (human orexin-2 receptor; [3]): 71 nM
CCN(C)c1nc(C(=O)N2[C@H]3CC[C@H](C3)[C@@H]2CNC(=O)c2cccc3ncsc23)c(-c2ccc(F)cc2)s1 [Example 118, Benzothiazole-7-carboxylic acid {(1S,3R,4R)-2-[2-(ethyl-methyl-amino)-5-(4-fluoro-phenyl)-thiazole-4-carbonyl]-2-aza-bicyclo[2.2.1]hept-3-ylmethyl}-amide] | 117 | 32 | 
Nc1nc(C(=O)N2[C@@H]3CC[C@@H](C3)[C@H]2CNC(=O)c2cccc3c2OCCO3)c(-c2cccc(F)c2)s1 [Example 5, 2,3-Dihydro-benzo[1,4]dioxine-5-carboxylic acid {(1R,3S,4S)-2-[2-amino-5-(3-fluoro-phenyl)-thiazole-4-carbonyl]-2-aza-bicyclo[2.2.1]hept-3-ylmethyl}-amide] |  |  | IC50 (human orexin-1 receptor; [1]): 149 nM; IC50 (human orexin-2 receptor; [1]): 29 nM
COc1nc(C(=O)N2[C@@H]3CC[C@@H](C3)[C@H]2CNC(=O)c2cccc3ncsc23)c(-c2cccc(Cl)c2)s1 [Example 80, Benzothiazole-7-carboxylic acid {(R,S,S)-2-[5-(3-chloro-phenyl)-2-methoxy-thiazole-4-carbonyl]-2-aza-bicyclo[2.2.1]hept-3-ylmethyl}-amide] | 80 | 15 | 
Cc1nc(C(=O)N2[C@@H]3CC[C@@H](C3)[C@H]2CNC(=O)c2cccc3cccnc23)c(-c2cccc(Cl)c2)s1 [Example 1, Quinoline-8-carboxylic acid {(1R,3S,4S)-2-[5-(3-chloro-phenyl)-2-methyl-thiazole-4-carbonyl]-2-aza-bicyclo[2.2.1]hept-3-ylmethyl}-amide] |  |  | IC50 (human orexin-1 receptor; [1]): 59 nM; IC50 (human orexin-2 receptor; [1]): 622 nM
O=C(NC[C@H]1[C@@H]2CC[C@@H](C2)N1C(=O)c1nc(N2CCCC2)sc1-c1ccccc1F)c1cccc2ncsc12 [Example 110, Benzothiazole-7-carboxylic acid {(1S,3R,4R)-2-[5-(2-fluoro-phenyl)-2-pyrrolidin-1-yl-thiazole-4-carbonyl]-2-aza-bicyclo[2.2.1]hept-3-ylmethyl}-amide] | 23 | 30 | 
COc1cccc(-c2sc(N(C)C)nc2C(=O)N2[C@@H]3CC[C@@H](C3)[C@H]2CNC(=O)c2cccc3ncsc23)c1 [Example 97, Benzothiazole-7-carboxylic acid {(1R,3S,45)-2-[2-dimethylamino-5-(3-methoxy-phenyl)-thiazole-4-carbonyl]-2-aza-bicyclo[2.2.1]hept-3-ylmethyl}-amide] |  |  | IC50 (human orexin-1 receptor; [3]): 12 nM; IC50 (human orexin-2 receptor; [3]): 14 nM

Further lines, with some results ahead:

IC50 (human orexin-1 receptor; [2]) [nM] | IC50 (human orexin-2 receptor; [2]) [nM] | Compound | other results
307 | 61 | CN(C)c1nc(C(=O)N2[C@@H]3CC[C@@H](C3)[C@H]2CNC(=O)c2nn(C)c3ccccc23)c(-c2ccccc2)s1 [Example 63, 1-Methyl-1H-indazole-3-carboxylic acid [(1R,3S,4S)-2-(2-dimethylamino-5-phenyl-thiazole-4-carbonyl)-2-aza-bicyclo[2.2.1]hept-3-ylmethyl]-amide] | 
138 | 55 | Cc1nc2sccn2c1C(=O)NC[C@@H]1[C@H]2CC[C@H](C2)N1C(=O)c1nc(C2CC2)sc1-c1ccccc1 [Example 31, 6-Methyl-imidazo[2,1-b]thiazole-5-carboxylic acid [(1R,3S,4S)-2-(2-cyclopropyl-5-phenyl-thiazole-4-carbonyl)-2-aza-bicyclo[2.2.1]hept-3-ylmethyl]-amide] | 
